Ends that are not written are not given here.
Assays:
[1] = tested on: K. pneumonia, 700603 (Kp); assay type: cell-based; settings: Mueller Hinton Broth
[2] = tested on: Gram+ & Gram−, Fungi, Virus, Parasites, Protozoan, HIV, Cancer cells; settings: Antimicrobial Peptide Database; cited from earlier work

Sequence	MIC Kp [1] [µM]	activity against organisms [2]
GGHGVRRFPWWWPFLRR [PEP 189, GGHGVRRFPWWWPFLRR]	7.2	–
GIGKFLHSAGKFGKAFVGEIMKS [SEQ ID NO: 57]	–	active against Gram+ & Gram−, Virus, Fungi, Parasites, Protozoan, HIV
GILAWKWAWWAWRR [SEQ ID NO: 55]	–	active against Gram+ & Gram−, Fungi, Virus, HIV
GILAWKWAWWAWRRGGC [SEQ ID NO: 61]	–	active against Gram+ & Gram−, Fungi, Virus, HIV
GIRRIIRKIIHIIKK [SEQ ID NO: 53]	–	active against Gram+ & Gram−, Fungi
GIRRIIRKIIHIIKKGGC [SEQ ID NO: 59]	–	active against Gram+ & Gram−, Fungi GVR
GRLARIVVIRVAR [SEQ ID NO: 56]	–	active against Gram+ & Gram−
GRRWKIVVIRWRRGGC [SEQ ID NO: 67]	–	active against Gram+ & Gram−
GVRRFPWWWPFLRR [SEQ ID NO: 54]	–	active against Gram+ & Gram−, Fungi
ILPWKWPWWPWRRGGC [SEQ ID NO: 64]	–	active against Gram+ & Gram−, Fungi, Virus, HIV
IRRIIRKIIHIIKKGGC [SEQ ID NO: 65]	–	active against Gram+ & Gram−, Fungi
RFPWWWPFLRRGGC [SEQ ID NO: 60]	–	active against Gram+ & Gram−, Fungi
RRWKIVVIRWRRGGC [SEQ ID NO: 62]	–	active against Gram+ & Gram−
VDKGSYLPRPTPPRPIYNRN [SEQ ID NO: 58]	–	active against Gram+ & Gram−
VRRFPWWWPFLRRGGC [SEQ ID NO: 66]	–	active against Gram+ & Gram−, Fungi
